Measurements as given in US12630565B2, “DNA-dependent protein kinase inhibitor” (DIZAL (JIANGSU) PHARMACEUTICAL CO., LTD., priority 2019, dated 2026).

Tests used:
[1] = molecular target: Full length human DNAPK protein (Homo sapiens, UniProt P78527); assay: DNA-PK enzymatic assay (TR-FRET); type: biochemical; conditions: 10 μM ATP, 1.6 μM peptide substrate
[2] = tested on: Rat hepatocyte; assay: Metabolic stability assay (rat hepatocyte Clint); type: in vitro ADME; conditions: 1 μM compound, cryopreserved hepatocytes 1 million cells per mL
Experimental: Viability of cryopreserved hepatocytes was determined using trypan blue and the cell conc. was adjusted to […] with buffer. 1 μM compound (in Acetonitrile; 0.01% DMSO) was incubated with 250 μL of hepatocytecells (1 million cells per mL) in a 96 deep well plate. Reaction was stopped at different time points (0, 0.5, 5, 15, 30, 45, 60, 80, 100 and 120 min) by addition of 3 volumes of chilled acetonitrile to 20 μL of reaction mixture and centrifuged at 4° C. for 15 min. 40 μL of supernatant was diluted to 200 μL with pure water and analyzed using LC-MS/MS.
In vitro hepatocyte clearance was estimated based on determination of elimination half-life (T1/2) of compounds disappearance from their initial concentrations. Peak area ratios of each compound (test or control) to IS was calculated. Drug elimination rate constant k (min−1), T1/2 (min), and in vitro intrinsic clearance CLint (μL/min/E6) was calculated according to the following equations: […]
Where Chep (cells×μL^−1) is the cell concentration in the incubation system.

[3] = Metabolic stability assay (human microsomal Clint); type: in vitro ADME; conditions: 1 mg/mL microsomes, 1 mM NADPH, 37° C.; for microsomal CLint at 1 μM: human, pooled human liver microsomes, pH 7.4, 1 μM compound; for Human liver microsomal CLint: 1 μM compound
Experimental: 1 μM compound was incubated with 1 mg/mL of microsomes (Pooled HLM with 20 mg/ml protein cone) at 37° C. in 250 μL of buffer (100 mM phosphate buffer, pH-7.4) containing 1 mM NADPH solution. 20 μL of incubation mix was quenched with 5 volumes chilled acetonitrile at different time points 0, 0.5, 5, 10, 15, 20 and 30 min in a fresh 96 well plate. The quench plate was centrifuged at 4000 rpm for 15 min. 40 μL of supernatant was diluted to 200 μL with pure water and analyzed using LC-MS/MS.
In vitro intrinsic clearance of the drugs in the microsome CLint (μl/min/mg) was calculated in the similar manner as the CLint in the hepatocyte.

[4] = tested on: MDR1, BCRP; assay: MDCKII-MDR1-BCRP efflux assay; type: in vitro ADME; conditions: dog, pH 7.4, 5 μM compound, HBSS pH 7.4, read-out: MDCK-Mdr1-BCRP efflux ratio
Experimental: The apical-to-basolateral (A-B) and basolateral-to-apical (B-A) transport of compound in HBSS (25 mM HEPES, pH 7.4) was measured across MDCKII-MDR1-BCRP cell monolayers. Incubations were performed at approximately 37° C. for 120 min, with functionality of the test system being confirmed using 5 μM digoxin as a positive control substrate. Transport of 5 μM compound and control compound were determined by quantifying substrate concentration in the incubation medium of donor compartment at the beginning of the incubation period, and both donor and receiver compartments at the end of the incubation period. The data was used to calculate the apparent permeability (Papp). All incubations were performed in triplicate and integrity of the cell monolayers was confirmed using the marker Lucifer yellow.
The permeability coefficient Pexact (cm/s) was calculated using the equation: […]
The Pexact ratio was calculated using the equation: […]
The efflux ratio was calculated using the equation: […]
Where dCr/dt is the cumulative concentration of compound in the receiver chamber as a function of time (μM/s); Vr is the solution volume in the receiver chamber (0.1 mL on the apical side, 0.3 mL on the basolateral side); A is the surface area for the transport, i.e. 0.11 cm2 for the area of the monolayer; CO is the initial concentration in the donor chamber (μM).

Row | SMILES | IC50 [1] | Rat hepatocyte CLint (μl/min/10^−6 cells) [2] | microsomal CLint at 1 μM [3] | Human liver microsomal CLint [3] | efflux ratio at 120 min, 5 μM [4]
1 | Cc1cc2ncnn2cc1Nc1ncc2c(C)nn(C3CCCC3)c2n1 [Example 47, 1-cyclopentyl-3-methyl-N-(7-methyl-[1,2,4]triazolo[1,5-a]pyridin-6-yl)-1H-pyrazolo[3,4-d]pyrimidin-6-amine] | 1.7 nM | 43.3 μl/min/10^−6 cells | 89.7 µL/min/mg | – | –
2 | CCC(C)n1nc(C)c2cnc(Nc3cn4ncnc4cc3C)nc21 (single isomer, unassigned) [Example 62, 1-(sec-butyl)-3-methyl-N-(7-methyl-[1,2,4]triazolo[1,5-a]pyridin-6-yl)-1H-pyrazolo[3,4-d]pyrimidin-6-amine] | 5.1 nM | 11.7 μl/min/10^−6 cells | – | 42.4 µL/min/mg | –
3 | Cc1cc2nccn2cc1Nc1ncc2c(C)nn(CC(C)C#N)c2n1 (centres unmarked) [Example 80, 2-methyl-3-(3-methyl-6-((7-methylimidazo[1,2-a]pyridin-6-yl)amino)-1H-pyrazolo[3,4-d]pyrimidin-1-yl)propanenitrile] | 2.1 nM | 9.3 μl/min/10^−6 cells | 23.5 µL/min/mg | – | 19
4 | Cc1cc2ncnn2cc1Nc1ncc2c(C)nn(CCCC(F)(F)F)c2n1 [Example 58, 3-methyl-N-(7-methyl-[1,2,4]triazolo[1,5-a]pyridin-6-yl)-1-(4,4,4-trifluorobutyl)-1H-pyrazolo[3,4-d]pyrimidin-6-amine] | 2.2 nM | 32.9 μl/min/10^−6 cells | 70.8 µL/min/mg | – | 1.9
5 | CCC(C)n1nc(C)c2cnc(Nc3cn4ncnc4cc3C)nc21 (single isomer, unassigned) [Example 61, 1-(sec-butyl)-3-methyl-N-(7-methyl-[1,2,4]triazolo[1,5-a]pyridin-6-yl)-1H-pyrazolo[3,4-d]pyrimidin-6-amine] | 3.5 nM | 5.2 μl/min/10^−6 cells | 34.5 µL/min/mg | – | –
6 | Cc1cc2ncnn2cc1Nc1ncc2c(n1)c(C1CCOCC1C)nn2C (single isomer, unassigned) [Example 56, 1-methyl-N-(7-methyl-[1,2,4]triazolo[1,5-a]pyridin-6-yl)-3-(3-methyltetrahydro-2H-pyran-4-yl)-1H-pyrazolo[4,3-d]pyrimidin-5-amine] | 1.1 nM | – | – | – | –
7 | COC(C)Cn1nc(C)c2cnc(Nc3cn4ncnc4cc3C)nc21 (single isomer, unassigned) [Example 71, 1-(2-methoxypropyl)-3-methyl-N-(7-methyl-[1,2,4]triazolo[1,5-a]pyridin-6-yl)-1H-pyrazolo[3,4-d]pyrimidin-6-amine] | 6.4 nM | – | – | – | –
8 | COC1CC2(C1)CC(n1nc(C)c3cnc(Nc4cn5ncnc5cc4C)nc31)C2 (centres unmarked) [Example 54, 1-(6-methoxyspiro[3.3]heptan-2-yl)-3-methyl-N-(7-methyl-[1,2,4]triazolo[1,5-a]pyridin-6-yl)-1H-pyrazolo[3,4-d]pyrimidin-6-amine] | 1.5 nM | – | – | – | –
9 | Cc1cc2ncnn2cc1Nc1ncc2c(n1)c(C1CCOCC1C)nn2C (single isomer, unassigned) [Example 55, 1-methyl-N-(7-methyl-[1,2,4]triazolo[1,5-a]pyridin-6-yl)-3-(3-methyltetrahydro-2H-pyran-4-yl)-1H-pyrazolo[4,3-d]pyrimidin-5-amine] | 2.5 nM | – | – | – | –
10 | Cc1cc2nccn2cc1Nc1ncc2c(C)nn(-c3ccc(C#N)cc3)c2n1 [Example 73, 4-(3-methyl-6-((7-methylimidazo[1,2-a]pyridin-6-yl)amino)-1H-pyrazolo[3,4-d]pyrimidin-1-yl)benzonitrile] | 1.3 nM | – | – | – | –
11 | Cc1cc2ncnn2cc1Nc1ncc2c(C)nn(CC3CCC3)c2n1 [Example 46, 1-(cyclobutylmethyl)-3-methyl-N-(7-methyl-[1,2,4]triazolo[1,5-a]pyridin-6-yl)-1H-pyrazolo[3,4-d]pyrimidin-6-amine] | 3.3 nM | 60.9 μl/min/10^−6 cells | 105 µL/min/mg | – | –
12 | Cc1cc2ncnn2cc1Nc1ncc2c(C)nn(C3CC4(CCC4)C3)c2n1 [Example 43, 3-methyl-N-(7-methyl-[1,2,4]triazolo[1,5-a]pyridin-6-yl)-1-(spiro[3.3]heptan-2-yl)-1H-pyrazolo[3,4-d]pyrimidin-6-amine] | 1.5 nM | 16.9 μl/min/10^−6 cells | 173 µL/min/mg | – | –
13 | COC(C)Cn1nc(C)c2cnc(Nc3cn4ncnc4cc3C)nc21 (single isomer, unassigned) [Example 70, 1-(2-methoxypropyl)-3-methyl-N-(7-methyl-[1,2,4]triazolo[1,5-a]pyridin-6-yl)-1H-pyrazolo[3,4-d]pyrimidin-6-amine] | 4.3 nM | – | – | – | –
14 | Cc1cc2ncnn2cc1Nc1ncc2c(C)nn([C@H]3CC[C@H](F)CC3)c2n1 [Example 28, 1-((1r,4r)-4-fluorocyclohexyl)-3-methyl-N-(7-methyl-[1,2,4]triazolo[1,5-a]pyridin-6-yl)-1H-pyrazolo[3,4-d]pyrimidin-6-amine] | 1.3 nM | 14.1 μl/min/10^−6 cells | 70 µL/min/mg | – | –
15 | Cc1cc2ncnn2cc1Nc1ncc2c(C)nn(C3CCC3)c2n1 [Example 45, 1-cyclobutyl-3-methyl-N-(7-methyl-[1,2,4]triazolo[1,5-a]pyridin-6-yl)-1H-pyrazolo[3,4-d]pyrimidin-6-amine] | 4.3 nM | 64.0 μl/min/10^−6 cells | 70 µL/min/mg | – | –
16 | Cc1cc2ncnn2cc1Nc1ncc2c(C)nn(CCOC(F)(F)F)c2n1 [Example 64, 3-methyl-N-(7-methyl-[1,2,4]triazolo[1,5-a]pyridin-6-yl)-1-(2-(trifluoromethoxy)ethyl)-1H-pyrazolo[3,4-d]pyrimidin-6-amine] | 3.6 nM | 38.6 μl/min/10^−6 cells | 50.8 µL/min/mg | – | –
17 | COCCC(C)n1nc(C)c2cnc(Nc3cn4ncnc4cc3C)nc21 (single isomer, unassigned) [Example 68, 1-(4-methoxybutan-2-yl)-3-methyl-N-(7-methyl-[1,2,4]triazolo[1,5-a]pyridin-6-yl)-1H-pyrazolo[3,4-d]pyrimidin-6-amine] | 65.3 nM | 37.0 μl/min/10^−6 cells | – | 201.9 µL/min/mg | –
18 | Cc1cc2nccn2cc1Nc1ncc2c(C)nn(C3CCC(F)(F)CC3)c2n1 [Example 22, 1-(4,4-difluorocyclohexyl)-3-methyl-N-(7-methylimidazo[1,2-a]pyridin-6-yl)-1H-pyrazolo[3,4-d]pyrimidin-6-amine] | 1.3 nM | 40.9 μl/min/10^−6 cells | 115 µL/min/mg | – | –
19 | Cc1cc2ncnn2cc1Nc1ncc2c(C)nn([C@H]3CC[C@@H](F)CC3)c2n1 [Example 27, 1-((1s,4s)-4-fluorocyclohexyl)-3-methyl-N-(7-methyl-[1,2,4]triazolo[1,5-a]pyridin-6-yl)-1H-pyrazolo[3,4-d]pyrimidin-6-amine] | 1 nM | 10.8 μl/min/10^−6 cells | 41.4 µL/min/mg | – | –
20 | COCCC(C)n1nc(C)c2cnc(Nc3cn4ncnc4cc3C)nc21 (single isomer, unassigned) [Example 67, 1-(4-methoxybutan-2-yl)-3-methyl-N-(7-methyl-[1,2,4]triazolo[1,5-a]pyridin-6-yl)-1H-pyrazolo[3,4-d]pyrimidin-6-amine] | 27 nM | 8.3 μl/min/10^−6 cells | 104 µL/min/mg | – | –
